Test results taken from publication PMC7344390, “Leptogorgins A–C, Humulane Sesquiterpenoids from the Vietnamese Gorgonian Leptogorgia sp” (Marine Drugs, 2020).

Columns and labels:
NCF-7 = system: NCF-7; parameters: method as in PMID 12881017; conditions: human cancer NCF-7 cell line; more active than curcumin; cited from earlier work
HT-29 = system: HT-29; parameters: method as in PMID 12881017; conditions: human cancer HT-29 cell line; more active than curcumin; cited from earlier work
CaCO-2 = system: CaCO-2; parameters: method as in PMID 12881017; conditions: human cancer CaCO-2 cell line; more active than curcumin; cited from earlier work
[1] = system: PNT2 cells (human prostate non-cancer cells); assay: In vitro MTT-based drug sensitivity assay, PNT2 cells; conditions: 72 h treatment, read-out: IC50 (cell viability, MTT)
Experimental: (§1) The human prostate cancer cells 22Rv1 and human prostate non-cancer cells PNT2 were purchased from ATCC. Cell lines were cultured according to the manufacturer’s instructions in 10% FBS/RPMI media (Invitrogen, Carlsbad, CA, USA) and handled as described in [29].
(§2) The in vitro cytotoxic activities of the isolated substances were evaluated by MTT assays. The assays were performed as described previously. In brief, cells were seeded in 96-well plates (6 × 10^3 cells/well), incubated overnight, and treated with the tested compounds for 72 h. Next, 10 μL/well of MTT reagent was added and the plates were incubated for 2 h. The media were aspirated and the plates were dried. The formed formazan crystals were dissolved in DMSO and the cell viability was measured using an Infinite F200PRO reader (TECAN, Männedorf, Switzerland). Results were calculated by the GraphPad Prism software v. 7.05 (GraphPad Prism software Inc., La Jolla, CA, USA) and are represented as the IC50 of the compounds against the control cells treated with the solvent alone.

[2] = system: 22Rv1 cells (human drug-resistant prostate cancer cells); assay: In vitro MTT-based drug sensitivity assay, 22Rv1 cells; conditions: 72 h treatment, read-out: IC50 (cell viability, MTT)
Experimental: as §1, §2

**Q.** Which antitumor activity (NCF-7) does the source give for C/C1=C\CC(C)(C)/C=C/C(=O)/C(C)=C/CC1 [zurumbone, 2,6,9-humulatriene-8-one] here?
**A.** active

**Q.** And the antitumor activity (HT-29)?
**A.** active

**Q.** And the antitumor activity (CaCO-2)?
**A.** active

**Q.** Which results are given for CC1=CCC(C)(C)C=CC(=O)C(CO)=CC(O)C1 (stereo not drawn) [Compound 1, 4-oxohumula-2E,5E,9E-trien-7S,12-diol]?
**A.** IC50 [1]: 35.8 µM; IC50 [2]: 31 µM

**Q.** With COc1cccc2c1C(=O)c1c(O)c3c(c(O)c1C2=O)C[C@@](O)(C(=O)CO)C[C@@H]3O[C@H]1C[C@H](N)[C@H](O)[C@H](C)O1 [Doxorubicine] as the compound, how does the IC50 [1] read?
**A.** 1.12 µM

**Q.** What about the IC50 [2] of the same compound?
**A.** 0.084 µM

**Q.** For CC(=O)OC1C=C(CO)C(=O)C=CC(C)(C)CC=C(C)C1 (stereo not drawn) [Compound 2, 4-oxohumula-2E,5E,9E-trien-7S-acetate,12-ol], which IC50 [1] is on record?
**A.** > 100 µM

**Q.** And the IC50 [2]?
**A.** > 100 µM
